{"source": "patent US6399643B1", "about": "“Spiroimidazolidine derivatives, their preparation, their use and pharmaceutical preparations formed therefrom” (Aventis Pharma Deutschland GmbH, priority 1999, dated 2002)", "note": "Where a name gives a salt, the structure may show the parent alone.", "data": [{"molecular_target": "T1, interaction between VCAM-1 and VLA-4 (Homo sapiens, UniProt P05556+P13612)", "T1 construct": "supplied in their natural form as surface molecules on human U937 cells; host or cells: human U937 cells (VLA-4, endogenous); the partner hVCAM-1(1-3)-IgG was made in house in transfected COS cells (ATCC CRL1651) and used as culture supernatant", "T1 sequence (P13612 34-1032)": "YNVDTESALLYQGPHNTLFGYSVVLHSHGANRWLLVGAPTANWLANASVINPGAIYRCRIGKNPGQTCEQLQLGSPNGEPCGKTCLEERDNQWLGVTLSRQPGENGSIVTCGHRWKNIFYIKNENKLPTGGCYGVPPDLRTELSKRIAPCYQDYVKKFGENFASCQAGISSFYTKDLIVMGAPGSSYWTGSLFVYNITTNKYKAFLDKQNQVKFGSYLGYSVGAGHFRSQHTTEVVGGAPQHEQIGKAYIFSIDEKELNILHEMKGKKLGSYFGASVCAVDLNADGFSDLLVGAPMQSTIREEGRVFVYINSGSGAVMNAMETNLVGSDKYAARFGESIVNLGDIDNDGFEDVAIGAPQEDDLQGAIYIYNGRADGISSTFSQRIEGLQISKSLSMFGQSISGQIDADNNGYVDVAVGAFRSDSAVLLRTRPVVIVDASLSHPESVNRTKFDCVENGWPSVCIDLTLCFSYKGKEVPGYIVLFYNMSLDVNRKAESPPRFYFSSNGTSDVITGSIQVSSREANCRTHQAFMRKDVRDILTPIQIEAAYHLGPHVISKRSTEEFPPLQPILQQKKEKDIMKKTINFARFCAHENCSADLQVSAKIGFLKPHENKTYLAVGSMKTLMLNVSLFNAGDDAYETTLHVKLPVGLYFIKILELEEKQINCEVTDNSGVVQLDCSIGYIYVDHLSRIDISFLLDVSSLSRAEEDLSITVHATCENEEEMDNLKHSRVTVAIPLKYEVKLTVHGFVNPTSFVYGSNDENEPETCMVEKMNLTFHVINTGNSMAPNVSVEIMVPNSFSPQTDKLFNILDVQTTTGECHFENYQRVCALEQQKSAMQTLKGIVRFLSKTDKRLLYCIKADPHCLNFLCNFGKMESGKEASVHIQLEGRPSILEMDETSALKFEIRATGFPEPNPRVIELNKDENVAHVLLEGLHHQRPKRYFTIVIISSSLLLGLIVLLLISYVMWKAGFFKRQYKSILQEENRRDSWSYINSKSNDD", "T1 sequence (P05556 21-798)": "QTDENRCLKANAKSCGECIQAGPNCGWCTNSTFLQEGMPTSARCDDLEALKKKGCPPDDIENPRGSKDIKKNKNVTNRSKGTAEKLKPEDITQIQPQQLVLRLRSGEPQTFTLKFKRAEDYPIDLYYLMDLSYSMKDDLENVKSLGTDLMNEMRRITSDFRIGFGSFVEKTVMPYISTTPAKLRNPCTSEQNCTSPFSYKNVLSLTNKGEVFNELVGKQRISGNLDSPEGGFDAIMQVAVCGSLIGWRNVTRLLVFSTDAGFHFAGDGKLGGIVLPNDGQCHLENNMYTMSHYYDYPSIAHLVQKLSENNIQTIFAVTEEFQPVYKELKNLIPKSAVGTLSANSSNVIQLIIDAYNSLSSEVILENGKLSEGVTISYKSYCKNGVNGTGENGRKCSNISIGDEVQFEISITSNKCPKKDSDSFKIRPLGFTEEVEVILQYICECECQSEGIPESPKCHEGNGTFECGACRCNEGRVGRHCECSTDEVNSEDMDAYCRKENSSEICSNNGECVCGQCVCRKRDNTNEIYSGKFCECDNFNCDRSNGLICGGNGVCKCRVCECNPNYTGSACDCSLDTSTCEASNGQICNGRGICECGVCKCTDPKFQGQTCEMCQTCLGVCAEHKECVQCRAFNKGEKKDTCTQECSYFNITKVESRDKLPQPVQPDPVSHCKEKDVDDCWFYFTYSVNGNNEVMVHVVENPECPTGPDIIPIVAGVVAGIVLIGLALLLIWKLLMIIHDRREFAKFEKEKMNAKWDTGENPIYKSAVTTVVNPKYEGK", "test": "U937/VCAM-1 cell adhesion test (adhesion of U937 cells to hVCAM-1(1-3)-IgG)", "format": "cell-based", "settings": "inhibition of adhesion of human U937 cells (ATCC CRL 1593) to hVCAM-1(1-3)-IgG", "from_the_text": "A) U937/VCAM-1 Cell Adhesion Test\nThe test method used for the activity of the compounds of the formula I on the interaction between VCAM-1 and VLA-4 is the assay described below, which is specific for this interaction. The cellular binding components, that is the VLA-4 integrins, are supplied in their natural form as surface molecules on human U937 cells (ATCC CRL 1593), which belong to the leukocytes group. The specific binding components used are genetically engineered recombinant soluble fusion proteins, consisting of the extracytoplasmic domain of human VCAM-1 and the constant region of a human immunoglobulin of the subclass IgG1.\nAssay for the Measurement of the Adhesion of U937 Cells (ATCC CRL 1593) to hVCAM-1 (1-3)-IgG\n1. Preparation of Human VCAM-1(1-3)-IgG and Human CD4-IgG\nA genetic construct for the expression of the extracellular domain of human VCAM-1, combined with the genetic sequence of the heavy chain of human immunoglobulin IgG1 (hinge, CH2 and CH3 regions) (from Brian Seed, Massachusetts General Hospital, Boston, USA; cf. Damle and Aruffo, Proc. Natl. Acad. Sci. USA 1991, 88, 6403), was employed. The soluble fusion protein hVCAM-1(1-3)-IgG contained the three aminoterminal extracellular immunoglobulin-like domains of human VCAM-1 (Damle and Aruffo, Proc. Natl. Acad. Sci. USA 1991, 88, 6403). CD4-IgG (Zettlmeissl et al., DNA and Cell Biology 1990, 9, 347) served as a fusion protein for negative controls. The recombinant proteins were expressed as soluble proteins after DEAE/dextran-mediated DNA transfection in COS cells (ATCC CRL1651) according to standard procedures (Ausubel et al., Current protocols in molecular biology, John Wiley & Sons, Inc., 1994).\n2. Assay for the Measurement of the Adhesion of U937 Cells to hVCAM-1(1-3)-IgG\n2.1 96-well microtiter test plates (Nunc Maxisorb) were incubated at room temperature for 1 hour with 100 μl/well of a goat-anti-human IgG antibody solution (10 μg/ml in 50 mM tris, pH 9.5). After removal of the antibody solution, washing was carried out once with PBS.\n2.2 150 μl/well of a blocking buffer (1% BSA in PBS) were incubated on the plates at room temperature for 0.5 hour. After removal of the blocking buffer, washing was carried out once with PBS.\n2.3 100 μl per well of a cell culture supernatant of transfected COS cells were incubated on the plates at room temperature for 1.5 hours. The COS cells were transfected with a plasmid which codes for the three N-terminal immunoglobulin-like domains of VCAM-1, coupled to the Fc portion of human IgG1 (hVCAM-1 (1-3)-IgG). The content of hVCAM-1(1-3)-IgG was about 0.5-1 μg/ml. After removing the culture supernatant, washing was carried out once with PBS.\n2.4 The plates were incubated at room temperature for 20 minutes with 100 μl/well of Fc receptor blocking buffer (1 mg/ml of γ-globulin, 100 mM NaCl, 100 μM MgCl2, 100 μM MnCl2, 100 μM CaCl2, 1 mg/ml of BSA in 50 mM HEPES, pH 7.5). After removal of the Fc receptor blocking buffer, washing was carried out once with PBS.\n2.5 20 μl of binding buffer (100 μM NaCl, 100 μM MgCl2, 100 μM MnCl2, 100 μM CaCl2, 1 mg/ml of BSA in 50 mM HEPES, pH 7.5) were initially introduced, and the substances to be tested were added in 10 μl of binding buffer and incubated for 20 minutes. The controls used were antibodies against VCAM-1(BBT, No. BBA6) and against VLA-4(Immunotech, No. 0764).\n2.6 U937 cells were incubated in Fc receptor blocking buffer for 20 minutes and then pipetted in at a concentration of 1×10^6/ml and in an amount of 100 μl per well ([…]).\n2.7 The plates were slowly immersed at an angle of 45° in stop buffer (100 mM NaCl, 100 μM MgCl2, 100 μM MnCl2, 100 μM CaCl2 in 25 mM Tris, pH 7.5) and shaken off. The process was repeated.\n2.8 50 μl/well of a dye solution ([…] of Hoechst Dye 33258, 4% formaldehyde, 0.5% Triton X-100 in PBS) were then incubated on the plates for 15 minutes. […]", "units": {"IC50": "nM"}, "values": [{"smiles": "COc1ccc([C@H](CC(=O)O)NC(=O)[C@H](CC(C)C)N2C(=O)N(Cc3ccc(NC(=O)Nc4ccccc4)cc3)C3(CCCCC3)C2=O)cc1", "note": "[Example 16, (S)-3-((S)-2-(4,4-Pentamethylene-3-(4-(3-phenylureido)benzyl)-2,5-dioxoimidazolidin-1-yl)-2-(2-methylpropyl)acetylamino)-3-(4-methoxyphenyl)propionic acid]", "IC50": 4}, {"smiles": "Cc1ccccc1NC(=O)Nc1ccc(CN2C(=O)N([C@@H](CC(C)C)C(=O)N[C@H](C)CC(=O)O)C(=O)C23CCCCC3)cc1", "note": "[Example 9, (R)-3-((S)-2-(4,4-Pentamethylene-3-(4-(3-(2-methylphenyl)ureido)benzyl)-2,5-dioxoimidazolidin-1-yl)-2-(2-methylpropyl)acetylamino)-3-methylpropionic acid]", "IC50": 2.2}, {"smiles": "Cc1ccccc1NC(=O)Nc1ccc(CN2C(=O)N([C@@H](CC(C)C)C(=O)N[C@H](C)CC(=O)O)C(=O)C23CCCCC3)cc1", "note": "[Example 24, (R)-3-((S)-2-(4,4-Pentamethylene-3-(4-(3-(2-methylphenyl)ureido)benzyl)-2,5-dioxoimidazolidin-1-yl)-2-(2-methylpropyl)acetylamino)-3-methylpropionic acid tromethamine salt]", "IC50": 1.7}, {"smiles": "COc1cc(CN2C(=O)N([C@@H](CC(C)C)C(=O)N[C@@H](CC(=O)O)c3ccc(OC)c(OC)c3)C(=O)C23CCCCC3)ccc1NC(=O)Nc1ccccc1C", "note": "[Example 37, (S)-3-((S)-2-(4,4-Pentamethylene-3-(4-(3-(2-methylphenyl)ureido)-3-methoxybenzyl)-2,5-dioxoimidazolidin-1-yl)-2-(2-methylpropyl)acetylamino)-3-(3,4-dimethoxyphenyl)propionic acid]", "IC50": 1.3}, {"smiles": "COc1ccc([C@H](CC(=O)O)NC(=O)[C@H](CC(C)C)N2C(=O)N(Cc3ccc(NC(=O)Nc4ccccc4)cc3)C3(CCCCC3)C2=O)cc1", "note": "[Example 17, (S)-3-((S)-2-(4,4-Pentamethylene-3-(4-(3-phenylureido)benzyl)-2,5-dioxoimidazolidin-1-yl)-2-(2-methylpropyl)acetylamino)-3-(4-methoxyphenyl)propionic acid tromethamine salt]", "IC50": 1.9}, {"smiles": "COc1ccc([C@H](CC(=O)O)NC(=O)[C@H](CC(C)C)N2C(=O)N(Cc3ccc(NC(=O)Nc4ccccc4)cc3)C3(CCCCC3)C2=O)cc1OC", "note": "[Example 20, (S)-3-((S)-2-(4,4-Pentamethylene-3-(4-(3-phenylureido)benzyl)-2,5-dioxoimidazolidin-1-yl)-2-(2-methylpropyl)acetylamino)-3-(3,4-dimethoxyphenyl)propionic acid]", "IC50": 1.6}, {"smiles": "COc1ccc([C@H](CC(=O)O)NC(=O)[C@H](CC(C)C)N2C(=O)N(Cc3ccc(NC(=O)Nc4ccccc4C)cc3)C3(CCCCC3)C2=O)cc1OC", "note": "[Example 31, (S)-3-((S)-2-(4,4-Pentamethylene-3-(4-(3-(2-methylphenyl)ureido)benzyl)-2,5-dioxoimidazolidin-1-yl)-2-(2-methylpropyl)acetylamino)-3-(3,4-dimethoxyphenyl)propionic acid]", "IC50": 0.8}, {"smiles": "COc1ccc([C@H](CC(=O)O)NC(=O)[C@H](CC(C)C)N2C(=O)N(Cc3ccc(NC(=O)Nc4ccccc4C)cc3)C3(CCCCC3)C2=O)cc1", "note": "[Example 26, (S)-3-((S)-2-(4,4-Pentamethylene-3-(4-(3-(2-methylphenyl)ureido)benzyl)-2,5-dioxoimidazolidin-1-yl)-2-(2-methylpropyl)acetylamino)-3-(4-methoxyphenyl)propionic acid]", "IC50": 2.6}, {"smiles": "COc1ccc([C@H](CC(=O)O)NC(=O)[C@H](CC2CC2)N2C(=O)N(Cc3ccc(NC(=O)Nc4ccccc4C)cc3)C3(CCCCC3)C2=O)c(OC)c1", "note": "[Example 40, (S)-3-((S)-2-(4,4-Pentamethylene-3-(4-(3-(2-methylphenyl)ureido)benzyl)-2,5-dioxoimidazolidin-1-yl)-2-cyclopropylmethylacetylamino)-3-(2,4-dimethoxyphenyl)propionic acid]", "IC50": 2.1}, {"smiles": "COc1ccc([C@H](CC(=O)O)NC(=O)[C@H](CC(C)C)N2C(=O)N(Cc3ccc(NC(=O)Nc4ccccc4C)cc3)C3(CCCCC3)C2=O)cc1OC", "note": "[Example 32, (S)-3-((S)-2-(4,4-Pentamethylene-3-(4-(3-(2-methylphenyl)ureido)benzyl)-2,5-dioxoimidazolidin-1-yl)-2-(2-methylpropyl)acetylamino)-3-(3,4-dimethoxyphenyl)propionic acid tromethamine salt]", "IC50": 0.6}, {"smiles": "Cc1ccccc1NC(=O)Nc1ccc(CN2C(=O)N([C@@H](CC(C)C)C(=O)N[C@@H](CC(=O)O)c3ccc4c(c3)OCCO4)C(=O)C23CCCCC3)cc1", "note": "[Example 35, (S)-3-((S)-2-(4,4-Pentamethylene-3-(4-(3-(2-methylphenyl)ureido)benzyl)-2,5-dioxoimidazolidin-1-yl)-2-(2-methylpropyl)acetylamino)-3-(3,4-ethylenedioxyphenyl)propionic acid sodium salt]", "IC50": 3.4}, {"smiles": "COc1ccc([C@H](CC(=O)O)NC(=O)[C@H](CC(C)C)N2C(=O)N(Cc3ccc(NC(=O)Nc4ccccc4C)cc3)C3(CCCCC3)C2=O)c(OC)c1", "note": "[Example 30, (S)-3-((S)-2-(4,4-Pentamethylene-3-(4-(3-(2-methylphenyl)ureido)benzyl)-2,5-dioxoimidazolidin-1-yl)-2-(2-methylpropyl)acetylamino)-3-(2,4-dimethoxyphenyl)propionic acid sodium salt]", "IC50": 3.6}, {"smiles": "Cc1ccccc1NC(=O)Nc1ccc(CN2C(=O)N([C@@H](CC(C)C)C(=O)N[C@@H](CC(=O)O)c3ccccc3)C(=O)C23CCCCC3)cc1", "note": "[Example 23, (S)-3-((S)-2-(4,4-Pentamethylene-3-(4-(3-(2-methylphenyl)ureido)benzyl)-2,5-dioxoimidazolidin-1-yl)-2-(2-methylpropyl)acetylamino)-3-phenylpropionic acid tromethamine salt]", "IC50": 5.5}, {"smiles": "COc1cc(CN2C(=O)N([C@@H](CC(C)C)C(=O)N[C@@H](CC(=O)O)c3ccc(OC)c(OC)c3)C(=O)C23CCCCC3)ccc1NC(=O)Nc1ccccc1C", "note": "[Example 38, (S)-3-((S)-2-(4,4-Pentamethylene-3-(4-(3-(2-methylphenyl)ureido)-3-methoxybenzyl)-2,5-dioxoimidazolidin-1-yl)-2-(2-methylpropyl)acetylamino)-3-(3,4-dimethoxyphenyl)propionic acid tromethamine salt]", "IC50": 1.6}, {"smiles": "CC(C)C[C@@H](C(=O)N[C@H](C)CC(=O)O)N1C(=O)N(Cc2ccc(NC(=O)Nc3ccccc3)cc2)C2(CCCCC2)C1=O", "note": "[Example 3, (R)-3-((S)-2-(4,4-Pentamethylene-3-(4-(3-phenylureido)benzyl)-2,5-dioxoimidazolidin-1-yl)-2-(2-methylpropyl)acetylamino)-3-methylpropionic acid]", "IC50": 17}]}]}
